Results taken from publication PMC10518257 (Nature Cancer, 2023).
Several values for one entry are separate records, joined by “and”; a condition that tells them apart may be missing. Equal values may be shown once.

How the values were obtained:
LUAD-0087AS2 cells = experiment: Growth inhibition (alamarBlue, 96 h); type: cell-based, human; conditions: LUAD-0087AS2; 10000 nM; replicate sets
ECLC5B cells = experiment: Growth inhibition (alamarBlue, 96 h); type: cell-based, human; conditions: for raw viability signal (Source Data Fig. 3b-c): ECLC5B, replicates
TT cells = experiment: Growth inhibition (alamarBlue, 96 h); type: cell-based, human; conditions: for raw viability signal (Source Data Fig. 3b-c): replicate sets
LUAD-0077AS1 PDX = experiment: PDX efficacy study; type: in vivo, NSG mice; parameters: Tumor volume: unit not given here; conditions: for Area Under Curve Mean: Fig. 6b LUAD-0077AS1 tumor growth; for Change in tumor volume (block without heading, Fig. 6b) / Tumor volume: LUAD-0077AS1, individual animals
[1] = tested on: Ba/F3 KIF5B–RET^WT allograft tumors; experiment: Subcutaneous allograft efficacy study; type: in vivo, BALB/c nude mice; conditions: Ba/F3-KIF5B::RET, Ext. Data Fig. 9b
[2] = Homo sapiens, 96 h, read-out: IC50 for Inhibition of Growth (95% CI)

With CO[C@]1(C(=O)N[C@@H](C)c2ccc(-n3cc(F)cn3)nc2)CC[C@H](c2nc(C)cc(Nc3cc(C)[nH]n3)n2)CC1 [Pralsetinib] the “raw viability signal (Source Data Fig. 3b-c)” value (shortened to “raw viability signal”) (LUAD-0087AS2 cells) was 2211.28 and 4121.33 and 1386.59 and 1376.18, the “raw viability signal” value (ECLC5B cells; 0.01 nM) was 11159.3 and 6334.79 and 21867.4 and the “raw viability signal” value (ECLC5B cells; 0.1 nM) was 11498.4 and 7246.25 and 22158.4. For the same compound, the “raw viability signal” value (ECLC5B cells; 1 nM) was 11273.5 and 6357.98 and 19717.2, the “raw viability signal” value (ECLC5B cells; 10 nM) was 5160.26 and 1378.73 and 8133.57 and the “raw viability signal” value (ECLC5B cells; 100 nM) was 2920.41 and 1318.47 and 4448.62. The “raw viability signal” value (ECLC5B cells; 1000 nM) was 1849.04 and 1272.17 and 3256.96, the “raw viability signal” value (ECLC5B cells; 10000 nM) was 1438.61 and 1223.5 and 2843.35 and the IC50 (ECLC5B cells; [2]) was 0.006 µM. For the same compound, the “raw viability signal” value (TT cells; 0.01 nM) was 22929.2 and 25490.7 and 28433.6 and 13300.2 and 25151.2, the “raw viability signal” value (TT cells; 0.1 nM) was 22974.2 and 25164.4 and 33337.3 and 15066.6 and 24111.4 and the “raw viability signal” value (TT cells; 1 nM) was 21557.9 and 25049.8 and 31833.5 and 13551.8 and 21692.4. For the same compound, the “raw viability signal” value (TT cells; 10 nM) was 15259.3 and 23182.3 and 22444.5 and 12016.9 and 18286.5, the “raw viability signal” value (TT cells; 100 nM) was 9067.36 and 11673.9 and 13386.9 and 6206.3 and 13339.4 and the “raw viability signal” value (TT cells; 1000 nM) was 7976.19 and 8542.52 and 11087 and 4402.24 and 11387.8. For the same compound, the “raw viability signal” value (TT cells; 10000 nM) was 7016.43 and 7739.61 and 10148.3 and 3836.13 and 9483.47, the IC50 (TT cells; [2]) was 0.03 µM and the “Area Under Curve Mean” value (LUAD-0077AS1 PDX; 15 mg/kg BID) was 189.7. For the same compound, the “Area Under Curve Mean” value (LUAD-0077AS1 PDX; 30 mg/kg BID) was -512.3, the “Change in tumor volume (block without heading, Fig. 6b)” value (LUAD-0077AS1 PDX; 15 mg/kg BID) was 31.8218 and 17.159 and 11.071 and 13.2706 and -8.805 and the Tumor volume (LUAD-0077AS1 PDX; 15 mg/kg BID, treatment day 0) was 88.7 (3×) and 87.11 (2×). For the same compound, the Tumor volume (LUAD-0077AS1 PDX; 15 mg/kg BID, treatment day 4) was 88.7 (4×) and 87.11, the Tumor volume (LUAD-0077AS1 PDX; 15 mg/kg BID, treatment day 7) was 88.7 (2×) and 80.89 and 77.87 and 90.28 and the Tumor volume (LUAD-0077AS1 PDX; 15 mg/kg BID, treatment day 11) was 66.76 and 80.89 (2×) and 42.6 and 72.18. For the same compound, the Tumor volume (LUAD-0077AS1 PDX; 15 mg/kg BID, treatment day 14) was 70.82 and 80.89 and 64.12 and 83.97 and 73.54, the Tumor volume (LUAD-0077AS1 PDX; 15 mg/kg BID, treatment day 19) was 80.89 and 98.67 and 103.92 and 114.83 and 98.52 and the Tumor volume (LUAD-0077AS1 PDX; 15 mg/kg BID, treatment day 22) was 150.13 and 109.36 and 130.83 and 152.27 and 164.53. The Tumor volume (LUAD-0077AS1 PDX; 15 mg/kg BID, treatment day 25) was 166.88 and 122.74 and 141.32 and 205.88 and 187.29, the “Change in tumor volume (block without heading, Fig. 6b)” value (LUAD-0077AS1 PDX; 30 mg/kg BID) was -26.3021 and -30.7542 and -32.7343 and -33.6127 and -36.9233 and the Tumor volume (LUAD-0077AS1 PDX; 30 mg/kg BID, treatment day 0) was 88.7 and 87.11 (2×) and 82.36 (2×). For the same compound, the Tumor volume (LUAD-0077AS1 PDX; 30 mg/kg BID, treatment day 4) was 88.7 (2×) and 87.11 and 82.36 and 83.97, the Tumor volume (LUAD-0077AS1 PDX; 30 mg/kg BID, treatment day 7) was 72.18 and 70.82 and 68.07 and 66.76 and 74.9 and the Tumor volume (LUAD-0077AS1 PDX; 30 mg/kg BID, treatment day 11) was 57.83 (2×) and 60.32 (2×) and 64.12. For the same compound, the Tumor volume (LUAD-0077AS1 PDX; 30 mg/kg BID, treatment day 14) was 52.07 and 53.01 (2×) and 50.68 and 49.83, the Tumor volume (LUAD-0077AS1 PDX; 30 mg/kg BID, treatment day 19) was 65.37 and 57.83 and 55.4 and 60.32 and 51.95 and the Tumor volume (LUAD-0077AS1 PDX; 30 mg/kg BID, treatment day 22) was 65.37 and 48.41 and 53.01 and 51.95 (2×). The Tumor volume (LUAD-0077AS1 PDX; 30 mg/kg BID, treatment day 25) was 65.37 and 83.97 and 60.32 and 53.01 and 55.4, the “Tumor Volume Mean” value ([1]; 3 mg/kg BID, Day 1) was 221.52 mm3 and the “Tumor Volume Mean” value ([1]; 3 mg/kg BID, Day 4) was 379.17 mm3. For the same compound, the “Tumor Volume Mean” value ([1]; 3 mg/kg BID, Day 8) was 482.68 mm3, the “Tumor Volume Mean” value ([1]; 3 mg/kg BID, Day 11) was 745.24 mm3 and the “Tumor Volume Mean” value ([1]; 3 mg/kg BID, Day 15) was 1198.84 mm3. For the same compound, the “Tumor Volume Mean” value ([1]; 10 mg/kg BID, Day 1) was 212.85 mm3, the “Tumor Volume Mean” value ([1]; 10 mg/kg BID, Day 4) was 215.66 mm3 and the “Tumor Volume Mean” value ([1]; 10 mg/kg BID, Day 8) was 297.15 mm3. The “Tumor Volume Mean” value ([1]; 10 mg/kg BID, Day 11) was 403.26 mm3, the “Tumor Volume Mean” value ([1]; 10 mg/kg BID, Day 15) was 433.99 mm3 and the “Tumor Volume Mean” value ([1]; 30 mg/kg BID, Day 1) was 218.49 mm3. For the same compound, the “Tumor Volume Mean” value ([1]; 30 mg/kg BID, Day 4) was 127.84 mm3, the “Tumor Volume Mean” value ([1]; 30 mg/kg BID, Day 8) was 80.68 mm3 and the “Tumor Volume Mean” value ([1]; 30 mg/kg BID, Day 11) was 53.52 mm3. The “Tumor Volume Mean” value ([1]; 30 mg/kg BID, Day 15) was 67.12 mm3, the “Tumor Volume Mean” value ([1]; 60 mg/kg BID, Day 1) was 225.80 mm3 and the “Tumor Volume Mean” value ([1]; 60 mg/kg BID, Day 4) was 95.08 mm3. The “Tumor Volume Mean” value ([1]; 60 mg/kg BID, Day 8) was 69.89 mm3, the “Tumor Volume Mean” value ([1]; 60 mg/kg BID, Day 11) was 52.39 mm3 and the “Tumor Volume Mean” value ([1]; 60 mg/kg BID, Day 15) was 58.70 mm3.
